Test results: patent publication US20220218693A1, “IMMUNE CHECKPOINT INHIBITOR COMBINATION THERAPY USING QUINOLINE CARBOXAMIDE DERIVATIVE” (KABUSHIKI KAISHA YAKULT HONSHA, priority 2019, published 2022)

Key:
Format in all cases: in vivo, BALB/c mice
[1] = system: mouse bowel cancer cell line CT26 cells; test: Antitumor effect of combined administration in CT26 tumor-bearing mice (Example 1); settings: FIG. 1
Description: Six-week-old female BALB/c mice (72 mice) were purchased from Japan SLC, Inc., conditioned and raised for 5 days in University of Shizuoka, Experimental Animal Center, and then used for experiments.
Hair on a back part and ventral parts of the BALB/c mouse was shaved, and 1×10^6 mouse bowel cancer cell line CT26 cells (ATCCs) were subcutaneously transplanted in each of the left and right ventral parts (day 0). Five days after the transplantation, the longer diameter (mm) and the shorter diameter (mm) of the tumor were measured using a digital caliper (A&D Company, Limited), and a tumor volume was calculated. […]
An average of the tumor volumes on the left and the right was calculated for each individual, and on the basis of the thus-obtained value, the mice were divided into eight groups (nine mice in each group) in such a manner that the variations in tumor volume between individuals in the groups were the same. […]
The evaluation item was an average of the tumor volumes on the left and the right in each individual. From day 5, the longer diameter (mm) and the shorter diameter (mm) of the tumor were measured at an interval of one day or two days using a digital caliper. […] An average of the tumor volumes on the left and the right was calculated for each individual. […]

[2] = system: mouse bowel cancer cell line CT26 cells; test: Antitumor effect of combined administration in CT26 tumor-bearing mice (Example 2); settings: STX-1159 40 mg/kg p.o. days 6, 8 and 10 + PD-1 Ab 50 μg/mouse i.p. days 8, 10 and 13; compared with either agent alone; FIG. 2
Description: (§1) Six-week-old female BALB/c mice were purchased from Japan SLC, Inc., conditioned and raised for about a week in University of Shizuoka, Experimental Animal Center, and then used for experiments.
(§2) Hair on a back part and ventral parts of the BALB/c mouse was shaved, and 1×10^6 mouse bowel cancer cell line CT26 cells (ATCCs) were subcutaneously transplanted in each of the left and right ventral parts (day 0). Six days after the transplantation, the longer diameter (mm) and the shorter diameter (mm) of the tumor were measured using a digital caliper (A&D Company, Limited), and a tumor volume was calculated. The expression for calculation of the tumor volume was as follows: tumor volume (mm^3)=0.5×(longer diameter mm)×(shorter diameter mm)^2. An average of the tumor volumes on the left and the right was calculated for each individual, and on the basis of the thus-obtained value, the mice were divided into groups in such a manner that the variations in tumor volume between individuals in the groups were the same.
STX-1159 was orally administered at 40 mg/kg three times every other day. […]
The evaluation item was an individual tumor volume. From day 6, the longer diameter (mm) and the shorter diameter (mm) of the tumor were measured at an interval of one to four days using a digital caliper. […]

[3] = system: mouse fibrosarcoma CMS5a cells; test: Antitumor effect of combined administration in CMS5a tumor-bearing mice (Example 3); settings: STX-1159 40 mg/kg p.o. days 5 to 9 + PD-1 Ab 200 μg/mouse i.p. days 12, 14 and 16; t-test versus control; FIG. 3
Description: as §1
as §2, with “fibrosarcoma CMS5a” for “bowel cancer cell line CT26”, “cells” for “cells (ATCCs)”, “Five” for “Six”
STX-1159 was orally administered at 40 mg/kg continuously for five days. […]
The evaluation item was an individual tumor volume. From day 5, the longer diameter (mm) and the shorter diameter (mm) of the tumor were measured at an interval of one or two days using a digital caliper. […]

## O=C(Nc1nnc(-c2ccco2)o1)c1cc(-c2ccccc2)nc2ccc(OC(F)(F)F)cc12 [STX-1159, N-[5-(2-furyl)-1,3,4-oxadiazol-2-yl]-2-phenyl-6-trifluoromethoxy-4-quinoline carboxamide]
[1]; STX-1159 40 mg/kg p.o. days 5 to 9 in advance + PD-1 Ab 50 μg/mouse i.p. days 12, 14 and 16, compared with simultaneous and later administration groups
  antitumor effect (tumor volume): much higher antitumor effect
[1]; simultaneous: STX-1159 40 mg/kg p.o. days 12 to 16 + PD-1 Ab 50 μg/mouse i.p. days 12, 14 and 16, compared with each single-agent group
  antitumor effect (tumor volume): antitumor effect was lower
[2]
  antitumor effect (tumor volume): much higher antitumor effect
[3]
  tumor shrinkage (tumor volume) versus control group: showed more significant tumor shrinkage over the control group
